Biological target: T1, Receptor-type tyrosine-protein kinase FLT3 (Homo sapiens, UniProt P36888)
T1 sequence (P36888 whole entry): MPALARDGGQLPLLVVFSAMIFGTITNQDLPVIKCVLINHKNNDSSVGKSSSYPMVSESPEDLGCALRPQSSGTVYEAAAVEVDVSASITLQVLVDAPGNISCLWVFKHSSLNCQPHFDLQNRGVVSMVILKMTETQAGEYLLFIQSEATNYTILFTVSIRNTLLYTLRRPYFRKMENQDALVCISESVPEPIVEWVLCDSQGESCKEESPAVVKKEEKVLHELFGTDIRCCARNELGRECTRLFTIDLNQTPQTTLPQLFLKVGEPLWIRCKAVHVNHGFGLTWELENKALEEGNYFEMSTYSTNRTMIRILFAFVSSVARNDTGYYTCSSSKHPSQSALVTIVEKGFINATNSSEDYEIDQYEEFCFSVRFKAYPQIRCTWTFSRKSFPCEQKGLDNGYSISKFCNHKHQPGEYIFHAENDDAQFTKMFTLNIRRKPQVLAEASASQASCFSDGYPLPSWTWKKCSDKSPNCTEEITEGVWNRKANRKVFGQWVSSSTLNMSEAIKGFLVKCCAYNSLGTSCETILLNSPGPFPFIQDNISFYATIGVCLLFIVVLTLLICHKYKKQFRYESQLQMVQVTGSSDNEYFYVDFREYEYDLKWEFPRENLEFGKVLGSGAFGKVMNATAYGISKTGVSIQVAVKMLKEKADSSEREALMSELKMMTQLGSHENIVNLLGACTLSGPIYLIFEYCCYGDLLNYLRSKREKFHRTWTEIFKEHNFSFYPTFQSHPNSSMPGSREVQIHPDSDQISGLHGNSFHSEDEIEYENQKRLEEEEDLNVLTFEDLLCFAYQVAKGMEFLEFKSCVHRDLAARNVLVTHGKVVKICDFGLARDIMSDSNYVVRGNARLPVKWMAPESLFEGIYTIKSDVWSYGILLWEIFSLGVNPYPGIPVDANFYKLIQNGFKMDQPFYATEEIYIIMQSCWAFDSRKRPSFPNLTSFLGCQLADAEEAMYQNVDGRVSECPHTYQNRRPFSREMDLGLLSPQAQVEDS
Assay: Inhibition of recombinant FLT3 (unknown origin) by TR-FRET assay

IC50, > 10 µM:
O=c1cc(O)cc2oc(-c3ccc(O)c(O)c3)c(O[C@@H]3O[C@H](CO)[C@@H](O)[C@H](O)[C@H]3O)c(O)c1-2 [Quercetin 3-O-beta-D-glucoside]
O=c1cc(O)cc2oc(-c3ccc(O)c(O)c3)c(O[C@@H]3O[C@H](CO)[C@H](O)[C@H](O)[C@H]3O)c(O)c1-2 [2-(3,4-Dihydroxy-phenyl)-5,7-dihydroxy-3-((2S,4R,5R)-3,4,5-trihydroxy-6-hydroxymethyl-tetrahydro-pyran-2-yloxy)-chromen-4-one]
O=c1cc(O)cc2oc(-c3ccc(O)c(O)c3)c(OC3O[C@H](CO)[C@@H](O)[C@H](O)[C@@H]3O)c(O)c1-2 (stereo partly drawn)
